# Source: patent publication US8968784B2, “Method for preparing hydro/organo gelators from disaccharide sugars by biocatalysis and their use in enzyme-triggered drug delivery” (Research Foundation of the City University of New York, priority 2006, dated 2015)
# Assays:
# [1] = Gelation ability in water and organic solvents (inverted tube, visual); assay type: physicochemical; conditions: for gel formation: highly polar solvents like water, methanol, and non-polar solvents like nonane, benzene, toluene
# Protocol: Typically, a gelator (0.01-2 mg) in a required solvent (0.1-1 mL) was heated until the solid was completely dissolved. The resulting solution was slowly allowed to cool to room temperature and gelation was visually observed. […] All gels obtained were thermally reversible. Above their gelation temperature, the gels dissolved in water but could be returned to their original gel state upon cooling.
# Typically, the gelator (0.01-2 mg) and required solvent (0.1-1 mL) were placed into a 2 mL scintillation vial, which was then sealed with a screw cap. The vial was heated and shook until the solid was completely dissolved. The solution was set aside and allowed to cool to room temperature. Gelation was considered to have occurred when no gravitational flow in the inverted tube was observed.
# [2] = Solubilization (encapsulation) of curcumin in hydrogel; assay type: physicochemical; conditions: 0.5 wt % hydrogel of derivative 3, aqueous with cosolvent or surfactant or cyclodextrin
# Protocol: (§1) The release of curcumin into the solution in the presence of enzyme was monitored by measuring the curcumin UV-absorption spectrum. The absorption spectrum recorded in aqueous gel solution was compared with the curcumin spectra recorded in methanol. […] To test this hypothesis, water was added to the preformed gel and left for 12 hrs. The UV-absorption of the supernatant was recorded. […] XXVII. Cyclodextrin complexation: solubility, chemical and photochemical stability. Int. J. Pharm. 244, 127-135 (2002).
# [3] = molecular target: T1, hydrolase enzyme (Lipolase 100L, Type EX) (Thermomyces lanuginosus, UniProt O59952); test: Enzyme-triggered gel degradation and curcumin release from hydrogel, monitored by UV absorption; conditions: for curcumin release: room temperature
# T1 construct: purchased Lipolase 100L, Type EX
# T1 sequence (O59952 23-291): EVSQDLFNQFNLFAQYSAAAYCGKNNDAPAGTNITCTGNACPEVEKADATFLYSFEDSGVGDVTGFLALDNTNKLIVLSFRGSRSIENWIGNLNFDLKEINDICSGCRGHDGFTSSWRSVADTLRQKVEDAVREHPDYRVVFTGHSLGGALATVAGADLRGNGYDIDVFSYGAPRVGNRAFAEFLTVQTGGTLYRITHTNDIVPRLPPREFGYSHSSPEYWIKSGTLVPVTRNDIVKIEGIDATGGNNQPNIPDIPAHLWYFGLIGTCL
# Protocol: Solubilization of hydrophobic drugs and developing suitable drug delivery systems is a challenging task in drug discovery research.^18 A conceptual approach of single-step enzyme-triggered drug delivery at physiological conditions was performed where a hydrophobic drug molecule was encapsulated—solubilized without chemical modification—in a hydrogel and subsequent release of the drug by breaking the gel by using hydrolase enzyme (Lipolase 100L, Type EX). […] Drug release was monitored by absorbance spectra of the drug. Control of the drug release rate was achieved by manipulating the enzyme concentration and/or temperature. The by-products formed after the gel degradation were characterized and the cleavage site of the gelator by enzyme was determined. Gel degradation occurred due to the cleavage of the ester bond in the gelator by the hydrolase enzyme. ^18Miyata, T., Uragami, T. & Nakamae, K. Biomolecule-sensitive hydrogel. Adv. Drug Delivery Rev. 54, 79-98 (2002).
# as §1
# First, 0.5 mL of lipase—Lipolase 100L, Type EX, lipase units 100 KLU/g—was added to the preformed gel and kept at 37° C.—far lower than gel melting temperature. […] This was confirmed by spectroscopic experiments. Aliquots were collected after addition of an enzyme to the hydrogel after 10 min and 12 hrs and absorbance spectrum were recorded.
# To find out the role of the enzyme on hydrogel degradation, similar experiments were carried out by adding only water without an enzyme. As expected, the curcumin-encapsulated gel was still intact after incubating for a few days at 37° C. There was no visual change in the gel volume and in the added solution. […] To this, 0.5 mL of lipolase was added and incubated at 37° C.
# To obtain control on the rate of release, the role of enzyme concentration and temperature on gel degradation or controlled drug release was investigated. In a first set of experiments, the temperature was changed while keeping enzyme concentration constant. After addition of the enzyme to the preformed gel, the vial was kept at room temperature for two days, and as explained previously, curcumin release was monitored by absorption spectra.
# In a second set of experiments, the enzyme concentration was changed while keeping the temperature constant. […] At room temperature, even after several days, there was no release. Then the vial was placed at 37° C. in incubation and took 300 min to start the drug release, which eventually took 4,320 min to release completely. In addition to this, a similar low enzyme concentrated vial was directly incubated at 45° C.
# It is important to characterize the products/compounds formed after gel degradation. […] Upon gel degradation, a white fluffy solid was produced, which is not soluble in water, and thus settled down in the vial. The solid was isolated and characterized by ^1H-NMR, and it matched with the NMR of pure stearic acid. See FIG. 12, which is a comparison of the ^1H-NMR spectra of commercially available stearic acid and the white fluffy solid obtained after gel degradation, which was filtered, freeze-dried, and NMR recorded in Chloroform.
Molecule,gel formation [1],solubility [2] [µM],"time to complete curcumin release ([3]; lipase 100 KLU/g, 37° C.) [min]","time to start of curcumin release ([3]; lipase 100 KLU/g, 37° C.) [min]","time to complete curcumin release ([3]; lipase 100 KLU/g, 45° C.) [min]","time to start of curcumin release ([3]; lipase 100 KLU/g, 45° C.) [min]","curcumin release ([3]; lipase 100 KLU/g, two days)","time to complete curcumin release ([3]; lipolase 10 KLU/g, 37° C.)","time to start of curcumin release ([3]; lipolase 10 KLU/g, 37° C.) [min]","time to complete curcumin release ([3]; lipolase 10 KLU/g, 45° C.)","time to start of curcumin release ([3]; lipolase 10 KLU/g, 45° C.) [min]","curcumin release ([3]; lipolase 10 KLU/g, several days)","curcumin in supernatant (UV absorption) ([3]; water added to preformed gel of derivative 3, left 12 hrs, no enzyme)","gel degradation ([3]; hydrogel of derivative 3 without curcumin, 0.5 mL lipolase, 37° C., after 12 hrs)","site of gelator cleavage by enzyme (TLC, 1H-NMR of products) ([3]; products after gel degradation: amygdalin, stearic acid)",Minimum gelation concentration (MGC) ([1]; in benzene) [wt %],Minimum gelation concentration (MGC) ([1]; in water) [wt %],"number of solvents gelled ([1]; ten solvents tested (water, polar and nonpolar organic solvents))"
Amygdalin Tetradecanoate [derivative 2],formed gels,,,,,,,,,,,,,,,,,
COc1cc(/C=C/C(=O)CC(=O)/C=C/c2ccc(O)c(OC)c2)ccc1O [curcumin],,1000,≤ 720,120,270,≤ 30,no release,"4,320 min",300,"2,880 min",180,no release,Absence of any absorbance peak,,,,,
Amygdalin Octadecanoate [derivative 3],formed gels,,,,,,,,,,,,,degraded completely,cleaving the ester bond,0.2,0.05,all ten solvents
